In patent publication US20240409585A1, “MACROCYCLIC IMMUNOMODULATORS” (priority 2021, published 2024) one finds IC50 data, which are given here for 15 compounds.

Numbered stars: 1 amine (or outer) side, 2 acyl side, 3 side chain; on linkers, the order of the positions; unused ones are H or OH. Bridge positions count the residues as written; N and C are the ends. Square brackets hold non-standard residues; d marks the D form. Peptide text beside a SMILES is read from it. * marks the point of attachment. ξ: configuration not given here. X22 = NC(=O)c1cccc(-c2ccc(C[C@H](N[*:1])C(=O)[*:2])cc2)c1; Ala(morpholin-4-yl) = N[C@@H](CN1CCOCC1)C(=O)O; Phe(4-COOH) = N[C@@H](Cc1ccc(C(=O)O)cc1)C(=O)O; Bip = N[C@@H](Cc1ccc(-c2ccccc2)cc1)C(=O)O; Tyr(3-I) = N[C@@H](Cc1ccc(O)c(I)c1)C(=O)O; Phe(3-OMe) = COc1cccc(C[C@H](N)C(=O)O)c1; Phe(3-Me) = Cc1cccc(C[C@H](N)C(=O)O)c1; 2Nal = N[C@@H](Cc1ccc2ccccc2c1)C(=O)O; Phe(2-F) = N[C@@H](Cc1ccccc1F)C(=O)O; Val(3-OH) = CC(C)(O)[C@H](N)C(=O)O; 3Pal = N[C@@H](Cc1cccnc1)C(=O)O; 4Pal = N[C@@H](Cc1ccncc1)C(=O)O; 2Thi = N[C@@H](Cc1cccs1)C(=O)O; Cha = N[C@@H](CC1CCCCC1)C(=O)O; Cit = NC(=O)NCCC[C@H](N)C(=O)O; Ile(3ξ) = CCC(C)[C@H](N)C(=O)O; AllylGly = C=CC[C@H](N)C(=O)O; Thr(3ξ) = CC(O)[C@H](N)C(=O)O; Carboxymethyl = O=C(O)C*; NMeA = CN[C@@H](C)C(=O)O; Nle = CCCC[C@H](N)C(=O)O; Orn = NCCC[C@H](N)C(=O)O; dAbu = CC[C@@H](N)C(=O)O; Dab = NCC[C@H](N)C(=O)O; Dap = NC[C@H](N)C(=O)O; ξC = NC(CS)C(=O)O

One test deals with T1, PE-labeled human PD-L1-Ig binding to Jurkat cell line over-expressing human PD-1 (Jurkat-PD-1) (Homo sapiens, UniProt Q15116).
T1 construct: expressed in transfected cells; host or cells: Jurkat
T1 sequence (Q15116 25-288): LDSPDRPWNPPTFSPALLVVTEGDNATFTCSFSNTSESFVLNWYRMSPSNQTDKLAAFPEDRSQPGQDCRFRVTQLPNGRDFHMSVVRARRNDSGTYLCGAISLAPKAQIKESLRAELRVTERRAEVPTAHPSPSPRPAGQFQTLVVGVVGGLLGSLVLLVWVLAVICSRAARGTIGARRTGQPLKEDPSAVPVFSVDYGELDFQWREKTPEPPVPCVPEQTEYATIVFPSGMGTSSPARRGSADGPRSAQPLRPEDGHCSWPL
Put plainly: Jurkat-PD-1 Cell Binding High-Content Screening Assay (CBA): Method 1. The note with it: Jurkat-PD-1 cells, PE-labeled PD-L1-Ig; μM; read-out: CBA Method 1 μM.
Take `Cc1cccc(C[C@@H]2NC(=O)[C@H](CC(=O)O)NC(=O)[C@H](Cc3ccc(OCC(=O)O)cc3)NC(=O)[C@H](CN3CCOCC3)NC(=O)CSC[C@@H](C(=O)N[C@@H](CCN)C(N)=O)NC(=O)[C@H](CCCN)NC(=O)[C@H](C(C)C)NC(=O)[C@H](Cc3ccc4ccccc4c3)NC(=O)[C@H](CCN)NC(=O)[C@@H](CC(C)C)NC(=O)[C@H](C)N(C)C(=O)[C@H](CCC(N)=O)NC(=O)[C@H](Cc3ccc(-c4ccccc4)cc3)NC(=O)[C@H](Cc3ccc(C(=O)O)cc3)NC2=O)c1` [Example 5044] ({CH2CO}-[Ala(morpholin-4-yl)]Y(Carboxymethyl)D[Phe(3-Me)][Phe(4-COOH)][Bip]Q[NMeA][dL][Dab][2Nal]V[Orn]C[Dab]-NH2; thioether N-14): the IC50 was 0.131 µM.

The test is the same for the next values; noted with them: Jurkat-hPD-1 cells, PE-labeled PD-L1-Ig 20 nM final; read-out: Jurkat HPDL1 PD1 IC50 (uM) (Method 1).
As for `C=CC[C@@H]1NC(=O)[C@H](CC(C)C)NC(=O)[C@H](CC(N)=O)NC(=O)[C@@H](CC(C)C)NC(=O)[C@H](C)N(C)C(=O)[C@H](C(C)C)NC(=O)[C@H](Cc2ccc(-c3ccccc3)cc2)NC(=O)[C@H](CC=C)NC(=O)[C@H](Cc2cccc(C)c2)NC(=O)[C@H](CC(=O)O)NC(=O)[C@H](Cc2ccncc2)NC(=O)[C@H](Cc2ccc(OCC(=O)O)cc2)NC(=O)CSCC(C(=O)NCC(N)=O)NC(=O)[C@H](CO)NC1=O` (stereo partly drawn) [Compound 1882] ({CH2CO}-Y(Carboxymethyl)[4Pal]D[Phe(3-Me)][AllylGly][Bip]V[NMeA][dL]NL[AllylGly]S[ξC]G-NH2; thioether N-14), the IC50 is 0.03 µM.
Consider `CC[C@H]1NC(=O)[C@H](C)N(C)C(=O)[C@H](CCCNC(=N)N)NC(=O)[C@H](Cc2ccc(-c3ccccc3)cc2)NC(=O)[C@H](C(C)C)NC(=O)[C@H](Cc2c[nH]c3ccccc23)NC(=O)[C@H](CC(=O)O)NC(=O)[C@H](Cc2ccc(O)cc2)NC(=O)[C@H](Cc2ccccc2)NC(=O)CSC[C@@H](C(=O)N[C@@H](C)C(N)=O)NC(=O)[C@H]([C@@H](C)O)NC(=O)[C@H](C(C)C)NC(=O)[C@H](CC(C)C)NC(=O)[C@H](CCCNC(=N)N)NC1=O` [Compound 1069] ({CH2CO}-FYDWV[Bip]R[NMeA][dAbu]RLVTCA-NH2; thioether N-14), for which the IC50 is 0.22 µM.
Same read-out and setting: the same measure for `CC(C)C[C@@H]1NC(=O)[C@H](CCCNC(=N)N)NC(=O)[C@@H](CC(C)C)NC(=O)[C@H](C)N(C)C(=O)[C@H](CCCNC(=N)N)NC(=O)[C@H](Cc2ccc(-c3ccccc3)cc2)NC(=O)[C@H](C(C)C)NC(=O)[C@H](Cc2c[nH]c3ccccc23)NC(=O)[C@H](CC(=O)O)NC(=O)[C@H](Cc2ccc(O)cc2)NC(=O)[C@H](Cc2ccccc2)NC(=O)CSC[C@@H](C(=O)N[C@@H](C)C(N)=O)NC(=O)[C@H]([C@@H](C)O)NC(=O)[C@H](C(C)C)NC1=O` [Compound 1048] ({CH2CO}-FYDWV[Bip]R[NMeA][dL]RLVTCA-NH2; thioether N-14): 0.06 µM; for `CC(C)C[C@@H]1NC(=O)[C@H](CCCNC(=N)N)NC(=O)[C@@H](Cc2ccccc2)NC(=O)[C@H](C)N(C)C(=O)[C@H](CCCNC(=N)N)NC(=O)[C@H](Cc2ccc(-c3ccccc3)cc2)NC(=O)[C@H](C(C)C)NC(=O)[C@H](Cc2c[nH]c3ccccc23)NC(=O)[C@H](CC(=O)O)NC(=O)[C@H](Cc2ccc(O)cc2)NC(=O)[C@H](Cc2cnc[nH]2)NC(=O)CSC[C@@H](C(=O)N[C@@H](C)C(N)=O)NC(=O)[C@H](CO)NC(=O)[C@H](C(C)C)NC1=O` [Compound 1044] ({CH2CO}-HYDWV[Bip]R[NMeA][dF]RLVSCA-NH2; thioether N-14): 0.04 µM; for `CC(C)C[C@@H]1NC(=O)[C@H](Cc2c[nH]c3ccccc23)NC(=O)[C@H](CC(=O)O)NC(=O)[C@H](Cc2ccc(O)cc2)NC(=O)[C@H](Cc2cccnc2)NC(=O)CSC[C@@H](C(=O)N[C@@H](C)C(N)=O)NC(=O)[C@H](CO)NC(=O)[C@H](C(C)C)NC(=O)[C@H](CC(C)C)NC(=O)[C@H](CC(N)=O)NC(=O)[C@@H](C)NC(=O)[C@H](C)N(C)C(=O)[C@H](C(C)C)NC(=O)[C@H](Cc2ccc(-c3ccccc3)cc2)NC1=O` [Compound 1741] ({CH2CO}-[3Pal]YDWL[Bip]V[NMeA][dA]NLVSCA-NH2; thioether N-14): 0.02 µM.
The same measure, in the same setting: to `CC(C)C[C@@H]1NC(=O)[C@H](CC(N)=O)NC(=O)[C@@H](CC(C)C)NC(=O)[C@H](C)N(C)C(=O)[C@H](CCCNC(=N)N)NC(=O)[C@H](Cc2ccc(-c3ccccc3)cc2)NC(=O)[C@H](C(C)C)NC(=O)[C@H](Cc2c[nH]c3ccccc23)NC(=O)[C@H](CC(=O)O)NC(=O)[C@H](Cc2ccc(O)cc2)NC(=O)[C@H](CC(N)=O)NC(=O)CSC[C@@H](C(=O)N[C@@H](C)C(N)=O)NC(=O)[C@H]([C@@H](C)O)NC(=O)[C@H](C(C)C)NC1=O` [Compound 1245] ({CH2CO}-NYDWV[Bip]R[NMeA][dL]NLVTCA-NH2; thioether N-14) belongs 0.1 µM; to `CC(C)C[C@@H]1NC(=O)[C@H](C)NC(=O)[C@@H](C)NC(=O)[C@H](C)N(C)C(=O)[C@H](CCC(=O)O)NC(=O)[C@H](Cc2ccc(-c3ccccc3)cc2)NC(=O)[C@H](CC(C)C)NC(=O)[C@H](Cc2c[nH]c3ccccc23)NC(=O)[C@H](CC(=O)O)NC(=O)[C@H](Cc2ccc(O)cc2)NC(=O)[C@H](Cc2ccccc2)NC(=O)CSC[C@@H](C(=O)N[C@@H](C)C(N)=O)NC(=O)[C@H](CO)NC(=O)[C@H](C(C)C)NC1=O` [Compound 1785] ({CH2CO}-FYDWL[Bip]E[NMeA][dA]ALVSCA-NH2; thioether N-14), 0.09 µM.
The same measure, in the same setting: the same measure for `Cc1cccc(C[C@@H]2NC(=O)[C@H](CC(=O)O)NC(=O)[C@H](Cc3ccc(OCC(=O)O)cc3)NC(=O)[C@H](CN3CCOCC3)NC(=O)CSC[C@@H](C(=O)N[C@@H](CCN)C(N)=O)NC(=O)[C@H](CCCN)NC(=O)[C@H](C(C)C)NC(=O)[C@H](Cc3ccccc3F)NC(=O)[C@H](CCN)NC(=O)[C@@H](CC(C)C)NC(=O)[C@H](C)N(C)C(=O)[C@H](CCC(N)=O)NC(=O)[C@H](Cc3ccc(-c4ccccc4)cc3)NC(=O)[C@H](Cc3ccc(C(=O)O)cc3)NC2=O)c1` [Example 2296] ({CH2CO}-[Ala(morpholin-4-yl)]Y(Carboxymethyl)D[Phe(3-Me)][Phe(4-COOH)][Bip]Q[NMeA][dL][Dab][Phe(2-F)]V[Orn]C[Dab]-NH2; thioether N-14): 0.44 µM.
Consider `COc1cccc(C[C@@H]2NC(=O)[C@H](CC(=O)O)NC(=O)[C@H](Cc3cccc(C)c3)NC(=O)[C@H](CN)NC(=O)CSC[C@@H](C(=O)N[C@@H](C)C(N)=O)NC(=O)[C@@H](CO)NC(=O)[C@H](C(C)C)NC(=O)[C@H](CC(C)C)NC(=O)[C@H](CC(N)=O)NC(=O)[C@@H](C)NC(=O)[C@H](C)N(C)C(=O)[C@H](C(C)C)NC(=O)[C@H](Cc3ccc(-c4ccccc4)cc3)NC(=O)[C@@H](CC(C)C)NC2=O)c1` [Compound 1464] ({CH2CO}-[Dap][Phe(3-Me)]D[Phe(3-OMe)][dL][Bip]V[NMeA][dA]NLV[dS]CA-NH2; thioether N-14), for which the IC50 stood at 0.01 µM.
Regarding `CC(C)C[C@@H]1NC(=O)[C@H](CCN)NC(=O)[C@@H](CC(C)C)NC(=O)[C@H](C)N(C)C(=O)[C@H](CCCNC(N)=O)NC(=O)[C@H](Cc2ccc(-c3ccccc3)cc2)NC(=O)[C@H](C(C)C)NC(=O)[C@H](Cc2c[nH]c3ccccc23)NC(=O)[C@H](CC(=O)O)NC(=O)[C@H](Cc2ccc(C(=O)O)cc2)NC(=O)[C@H](CN)NC(=O)CSC[C@@H](C(=O)N[C@@H](C)C(N)=O)NC(=O)[C@H]([C@@H](C)O)NC(=O)[C@H](C(C)C)NC1=O` [Compound 1404] ({CH2CO}-[Dap][Phe(4-COOH)]DWV[Bip][Cit][NMeA][dL][Dab]LVTCA-NH2; thioether N-14), the IC50 was 0.12 µM.
Still for that read-out and setting: to `CCC(C)[C@@H]1NC(=O)[C@H](Cc2ccc(-c3ccccc3)cc2)NC(=O)[C@H](C(C)C)NC(=O)[C@H](Cc2c[nH]c3ccccc23)NC(=O)[C@H](CC(=O)O)NC(=O)[C@H](Cc2ccc(O)cc2)NC(=O)[C@H](Cc2cccs2)NC(=O)CSC[C@@H](C(=O)N[C@@H](CCCNC(=N)N)C(N)=O)NC(=O)[C@H](C(C)O)NC(=O)[C@H](C(C)(C)O)NC(=O)[C@H](CC2CCCCC2)NC(=O)[C@H](CC(N)=O)NC(=O)[C@@H](CC(C)C)NC(=O)[C@H](C)N(C)C1=O` (stereo partly drawn) [Compound 2172] ({CH2CO}-[2Thi]YDWV[Bip][Ile(3ξ)][NMeA][dL]N[Cha][Val(3-OH)][Thr(3ξ)]CR-NH2; thioether N-14) belongs 0.08 µM; to `CCCC[C@@H]1NC(=O)CSC[C@@H](C(=O)NCC(N)=O)NC(=O)[C@H](CO)NC(=O)[C@H](C(C)C)NC(=O)[C@H](CC(C)C)NC(=O)[C@H](CC(=O)O)NC(=O)[C@H](CC(N)=O)NC(=O)[C@H](C)N(C)C(=O)[C@H](C(C)C)NC(=O)[C@H](Cc2ccc(-c3ccccc3)cc2)NC(=O)[C@H](CC(C)C)NC(=O)[C@H](Cc2c[nH]c3ccccc23)NC(=O)[C@H](CC(=O)O)NC(=O)[C@H](Cc2ccc(O)cc2)NC1=O` [Compound 1828] ({CH2CO}-[Nle]YDWL[Bip]V[NMeA]NDLVSCG-NH2; thioether N-14), 0.82 µM; to `CC(C)C[C@@H]1NC(=O)[C@H](CCCNC(=N)N)NC(=O)[C@@H](CC(C)C)NC(=O)[C@H](C)N(C)C(=O)[C@H](CCCNC(=N)N)NC(=O)[C@H](Cc2ccc(-c3ccccc3)cc2)NC(=O)[C@H](C(C)C)NC(=O)[C@H](Cc2c[nH]c3ccccc23)NC(=O)[C@H](CC(=O)O)NC(=O)[C@H](Cc2ccc(O)c(I)c2)NC(=O)[C@H](Cc2ccccc2)NC(=O)CSC[C@@H](C(=O)N[C@@H](C)C(N)=O)NC(=O)[C@H]([C@@H](C)O)NC(=O)[C@H](C(C)C)NC1=O` [Compound 1109] ({CH2CO}-F[Tyr(3-I)]DWV[Bip]R[NMeA][dL]RLVTCA-NH2; thioether N-14), 0.12 µM.
Still for that read-out and setting: the same measure for `CC(C)C[C@@H]1NC(=O)[C@H](Cc2c[nH]c3ccccc23)NC(=O)[C@H](CC(=O)O)NC(=O)[C@H](Cc2ccc(O)cc2)NC(=O)[C@H](Cc2ccccc2)NC(=O)CSC[C@@H](C(=O)N[C@@H](C)C(N)=O)NC(=O)[C@H](CO)NC(=O)[C@H](C(C)C)NC(=O)[C@H](CC(C)C)NC(=O)[C@H](CC(=O)O)NC(=O)[C@@H](C)NC(=O)[C@H](C)N(C)C(=O)[C@H](C(C)C)NC(=O)[C@H](Cc2ccc(-c3cccc(C(N)=O)c3)cc2)NC1=O` [Compound 1830] ({CH2CO}-FYDWL[X22]V[NMeA][dA]DLVSCA-NH2; thioether N-14): 0.9 µM.
